The text below walks through data of patent publication US11944112B2, “Stabilized steviol glycoside malonic acid esters” (CARGILL, INCORPORATED, priority 2020, dated 2024).

A short description of the data set: Acid-stability at pH 1.7 (percent recovered by UHPLC/UV). In kind it is physicochemical. The settings on record: water pH 1.7, room temperature (about 22° C.). As to the method:
Acid-stability measurements were taken for samples of aspartame, SGMAs, and a combination of SGMAs with the stabilizer. […] Acid-stability was measured in water having a pH of 1.7. The concentration of the aspartame or the SGMAs in the samples during the testing was 0.1 to 10 wt %. The samples were stored at room temperature (nominally about 22° C.) and samples were taken periodically. The concentration of the aspartame, SGMAs, MCQAs and DCQAs, as the case may be, was measured by UHPLC/UV then divided by the original concentration to determine a percent recovered.
FIG. 1 illustrates the results for three samples—one had 3000 ppm (0.3 wt %) aspartame, another had 5 wt % SGMAs, and the third had 5 wt % each of the SGMAs and the stabilizer. Aspartame has limited solubility, but 3000 ppm is on par with concentrations of throw syrups used to make some diet carbonated soft drinks that have about 500 ppm of aspartame. […] After 14 days of storage, the concentration of aspartame was about 78% of the initial concentration; stated another way, about 22% of the aspartame was degraded. In the same 14 days, the concentration of SGMAs in the SGMA-only sample was about 67% of the initial concentration, a degradation of about 33%. That means the SGMA degradation was 50% higher than the aspartame degradation (33% vs 22%).

Where a SMILES comes first, the peptide text is derived from it.

On to `COC(=O)[C@H](Cc1ccccc1)NC(=O)[C@@H](N)CC(=O)O` [aspartame] (H-Asp-Phe-OMe), for which the “degradation after 14 days of storage” value was “about 22%”. The “concentration as percent of the initial concentration (percent recovered) after 14 days of storage” value (3000 ppm aspartame, 5 wt % SGMAs, or 5 wt % each SGMAs and stabilizer) is “about 78%”.
